Test results from patent publication US20110008471A1, “SYNERGISTIC ANTIPARASITIC COMPOSITIONS AND SCREENING METHODS” (TyraTech, Inc., priority 2007, published 2011).

Legend:
Tyramine receptor (TyrR) [1] = target: T1, Tyramine receptor (TyrR) (Drosophila melanogaster, UniProt P22270); assay: Intracellular Ca2+ level in cells expressing TyrR; type: cell-based
T1 construct: expressed in transfected cells; host or cells: model cells in culture
T1 sequence (P22270 27-601): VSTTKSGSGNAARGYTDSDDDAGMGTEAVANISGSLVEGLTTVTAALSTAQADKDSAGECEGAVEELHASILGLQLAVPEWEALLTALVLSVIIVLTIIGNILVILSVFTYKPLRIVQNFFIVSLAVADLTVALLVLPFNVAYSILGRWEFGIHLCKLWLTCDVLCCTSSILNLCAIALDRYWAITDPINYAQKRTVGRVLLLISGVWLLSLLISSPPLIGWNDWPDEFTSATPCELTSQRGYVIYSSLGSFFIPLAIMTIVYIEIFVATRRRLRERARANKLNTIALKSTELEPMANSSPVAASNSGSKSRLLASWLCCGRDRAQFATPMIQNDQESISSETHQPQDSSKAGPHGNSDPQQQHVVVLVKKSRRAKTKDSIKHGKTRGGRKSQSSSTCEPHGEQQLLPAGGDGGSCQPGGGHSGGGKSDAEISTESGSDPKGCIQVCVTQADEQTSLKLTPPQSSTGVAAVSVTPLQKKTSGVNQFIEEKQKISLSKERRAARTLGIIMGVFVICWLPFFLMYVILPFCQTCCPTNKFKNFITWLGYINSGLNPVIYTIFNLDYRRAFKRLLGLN

Tyramine receptor (TyrR) [2] = target: T1, Tyramine receptor (TyrR); assay: Tyramine receptor binding affinity in cells expressing TyrR
Method: In some embodiments, a method of selecting a composition for use in treating a parasitic infection includes the following. A cell expressing a tyramine receptor is provided and is contacted with test compounds. The receptor binding affinity of the compounds is measured. At least one parameter selected from the following parameters is measured: intracellular cAMP level, and intracellular Ca^2+ level. A first compound for the composition is identified, which is capable of altering at least one of the parameters, and which has a high receptor binding affinity for the tyramine receptor; and a second compound for the composition is identified, which is capable of altering at least one of the parameters, and which has a low receptor binding affinity for the tyramine receptor. A composition is selected that includes the first and second compounds.
As used herein, the term “receptor binding affinity” refers to an interaction between a composition or component, e.g., compound, and a receptor binding site. The interaction between a composition or component, and the receptor binding site, can be identified as specific or non-specific. In some embodiments, the specificity of an interaction between a composition or component, and a TyrR binding site, can be determined in the following manner. A wild type fly (Drosophila melanogaster) and a mutant fly are provided, where the mutant fly lacks a TyrR. The wild type and mutant flies are exposed to a composition or component of interest. […] If the exposure negatively affects the wild type fly and the mutant fly, then the treatment with the composition or component of interest can be said to be non-specific for the TyrR.
A “high receptor binding affinity” can be a specific interaction between a composition or component, and the receptor binding site.
A “low receptor binding affinity” can be a non-specific interaction between a composition or component, and the receptor binding site. […] In some embodiments, a low receptor binding affinity is found when the effective concentration at which tyramine binding is inhibited by 50% (EC50) is greater than about 500 μM, 625 μM, 750 μM, 875 μM, 1000 μM, 1125 μM, or 1250 μM.
A receptor gene encoding the Tyramine receptor (TyrR) has been isolated from the American cockroach, fruit fly, mosquito, and other organisms. The present subject matter provides methods of utilizing the TyrR protein expressed in cells to screen for compounds useful for treating parasitic infections.
(§1) In the present Example, the genes encoding TyrR were incorporated into model cells in culture that mimic receptors in insects. The screening process uses the cultured cells in combination with [Ca^2+]i and [cAMP]i measuring assays to quantitatively determine effectiveness of test compound to treat parasitic infections. The screening process allows for identification of compounds that produce highly efficacious anti-parasitic compositions.
(§2) The assay steps are as follows. A cell expressing a tyramine receptor is contacted with a test compound and the receptor binding affinity of the test compound is measured. Cells which can be used include, for example, HEK293 cells, COS cells, Drosophila Schneider or S2 cells, SF9, SF21, T.ni cells, or the like. cAMP and/or Ca^2+ levels within the cell are also monitored and any changes from contacting the test compound with the cell are noted for each compound tested. […] A composition for use in treating a parasitic formulation can then be selected that includes a plurality of the identified compounds. In particular, the composition can comprise at least one compound identified as having a high receptor binding affinity for the tyramine receptor as well as an ability to effect change in cAMP and/or Ca^2+ levels within the cell and at least one additional compound identified as having a low receptor binding affinity for the tyramine receptor as well as an ability to effect change in cAMP and/or Ca^2+ levels within the cell.

Tyramine receptor (TyrR) [3] = target: T1, Tyramine receptor (TyrR); assay: Intracellular cAMP level in cells expressing TyrR; type: cell-based
Source text: as §1, §2

H. nana = assay: Anti-parasitic effect against H. nana in vivo in infected Swiss albino mice (egg count, cure rate); parameters: species or system Hymenolepsis nana; conditions: for Egg Count (X ± SD), Pre Treatment (Base Line Data): infected mice, before 400 mg/kg oral daily for 5 days;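 as to all read-outs here: fecal egg counts per mouse in groups of 15, controls got soybean oil vehicle alone, cure judged 3 days after final dose by egg reduction and no adult intestinal worms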
[4] = 400 mg/kg oral daily for 5 days
[5] = 3 Days after last dose, 400 mg/kg oral daily for 5 days
[6] = 100 mg/kg oral daily for 5 days
[7] = Tested dose 100 mg/kg b.w. orally daily for 5 successive days

## C=CCc1ccc(O)c(OC)c1 [Eugenol]
Tyramine receptor (TyrR) [1]
  Affects Intracellular Ca^2+ (Yes or No): Yes
Tyramine receptor (TyrR) [2]
  Tyramine Receptor Binding Affinity (High or Low): Low
Tyramine receptor (TyrR) [3]
  Affects Intracellular cAMP (Yes or No): No

## Cc1ccc(C(C)C)cc1O [Rx4, carvacrol]
H. nana; [4]
  Egg Count (X ± SD), During Treatment 1st Day: 5 ± 0.6
  Egg Count (X ± SD), During Treatment 2nd Day: 2.2 ± 3.4
  Egg Count (X ± SD), During Treatment 3rd Day: 1 ± 1.9
  Egg Count (X ± SD), During Treatment 4th Day: 0.9 ± 1.2
  Egg Count (X ± SD), During Treatment 5th Day: 2 ± 2
  Egg Count (X ± SD), Post treatment 2 Days after last dose: 1.3 ± 1.1
H. nana; [5]
  Cure rate (%): 28.6%
  Positiveity rate (%): 71.4%
H. nana
  Egg Count (X ± SD), Pre Treatment (Base Line Data): 3 ± 1

## CC(C)=CCC/C(C)=C/CO [Rx5, geraniol]
H. nana; [4]
  Egg Count (X ± SD), During Treatment 1st Day: 14 ± 13.9
  Egg Count (X ± SD), During Treatment 2nd Day: 1.4 ± 2.1
  Egg Count (X ± SD), During Treatment 3rd Day: 4.1 ± 9.6
  Egg Count (X ± SD), During Treatment 4th Day: 2.6 ± 7.4
  Egg Count (X ± SD), During Treatment 5th Day: 2.3 ± 3.6
  Egg Count (X ± SD), Post treatment 2 Days after last dose: 0.5 ± 0.9
H. nana; [5]
  Cure rate (%): 66.6%
  Positiveity rate (%): 33.4%
H. nana; H. nana infected mice, 400 mg/kg body weight orally daily for 5 successive days, 3rd day after last dose
  cure rate: 66.6%
H. nana
  Egg Count (X ± SD), Pre Treatment (Base Line Data): 3 ± 1
H. nana; treated for 5 consecutive days, 400 mg/kg, post treatment dissection
  Worms absent or dead in mice: 67%

## CC12CCC(CC1)C(C)(C)O2 [Rx6, cineol]
H. nana; [4]
  Egg Count (X ± SD), During Treatment 1st Day: 5 ± 9.5
  Egg Count (X ± SD), During Treatment 2nd Day: 3.8 ± 14.3
  Egg Count (X ± SD), During Treatment 3rd Day: 1 ± 1.2
  Egg Count (X ± SD), During Treatment 4th Day: 1.8 ± 1.7
  Egg Count (X ± SD), During Treatment 5th Day: 1.6 ± 1.5
  Egg Count (X ± SD), Post treatment 2 Days after last dose: 2.5 ± 3.5
H. nana; [5]
  Cure rate (%): 54.5%
  Positiveity rate (%): 45.5%
H. nana
  Egg Count (X ± SD), Pre Treatment (Base Line Data): 3.1 ± 1.2

## Cc1ccc(C(C)C)cc1 [Rx10, p-cymene]
Tyramine receptor (TyrR) [1]
  Affects Intracellular Ca^2+ (Yes or No): Yes
Tyramine receptor (TyrR) [2]
  Tyramine Receptor Binding Affinity (High or Low): Low
  tyramine receptor binding affinity: low (a low receptor binding affinity is found when the equilibrium dissociation constant (Kd) is greater than about 100 nM)
Tyramine receptor (TyrR) [3]
  Affects Intracellular cAMP (Yes or No): Yes
H. nana; [6]
  Cure rate (%): 13.3%
H. nana; [7]
  Cure rate (%): 13.3%

## Cc1ccc(C(C)C)c(O)c1 [Rx11, thymol]
Tyramine receptor (TyrR) [1]
  Affects Intracellular Ca^2+ (Yes or No): Yes
Tyramine receptor (TyrR) [2]
  Tyramine Receptor Binding Affinity (High or Low): High
Tyramine receptor (TyrR) [3]
  Affects Intracellular cAMP (Yes or No): No
H. nana; [6]
  Cure rate (%): 33.3%
H. nana; [7]
  Cure rate (%): 33.3%

## C/C=C/c1ccc(OC)cc1 [anethole]
Tyramine receptor (TyrR) [1]
  Affects Intracellular Ca^2+ (Yes or No): Yes
Tyramine receptor (TyrR) [2]
  Tyramine Receptor Binding Affinity (High or Low): Low
Tyramine receptor (TyrR) [3]
  Affects Intracellular cAMP (Yes or No): Yes

## OCc1ccccc1 [benzyl alcohol]
Tyramine receptor (TyrR) [1]
  Affects Intracellular Ca^2+ (Yes or No): No
Tyramine receptor (TyrR) [2]
  Tyramine Receptor Binding Affinity (High or Low): Low
Tyramine receptor (TyrR) [3]
  Affects Intracellular cAMP (Yes or No): Yes

## CC12CCC(CC1)C(C)(C)O2 [cineol]
Tyramine receptor (TyrR) [1]
  Affects Intracellular Ca^2+ (Yes or No): Yes
Tyramine receptor (TyrR) [2]
  Tyramine Receptor Binding Affinity (High or Low): Low
Tyramine receptor (TyrR) [3]
  Affects Intracellular cAMP (Yes or No): Yes

## OCC=Cc1ccccc1 [cinnamyl alcohol]
Tyramine receptor (TyrR) [1]
  Affects Intracellular Ca^2+ (Yes or No): Yes
Tyramine receptor (TyrR) [2]
  Tyramine Receptor Binding Affinity (High or Low): Low
Tyramine receptor (TyrR) [3]
  Affects Intracellular cAMP (Yes or No): No

## C=C(C)[C@H]1CC=C(C)CC1 [d-limonene]
Tyramine receptor (TyrR) [1]
  Affects Intracellular Ca^2+ (Yes or No): Yes

## CC(C)=CCC/C(C)=C/CO [geraniol]
Tyramine receptor (TyrR) [1]
  Affects Intracellular Ca^2+ (Yes or No): Yes
Tyramine receptor (TyrR) [2]
  Tyramine Receptor Binding Affinity (High or Low): High
Tyramine receptor (TyrR) [3]
  Affects Intracellular cAMP (Yes or No): Yes

## C=CC(C)(O)CCC=C(C)C (stereo not shown) [linalool]
Tyramine receptor (TyrR) [1]
  Affects Intracellular Ca^2+ (Yes or No): Yes
Tyramine receptor (TyrR) [2]
  Tyramine Receptor Binding Affinity (High or Low): High
Tyramine receptor (TyrR) [3]
  Affects Intracellular cAMP (Yes or No): No
H. nana; [6]
  Cure rate (%): 23.3%
H. nana; [7]
  Cure rate (%): 23.3%

## CCC(=O)OCCc1ccccc1 [phenethyl proprionate]
Tyramine receptor (TyrR) [1]
  Affects Intracellular Ca^2+ (Yes or No): No
Tyramine receptor (TyrR) [2]
  Tyramine Receptor Binding Affinity (High or Low): Low
Tyramine receptor (TyrR) [3]
  Affects Intracellular cAMP (Yes or No): Yes

## CCCCCCCCCCCCOS(=O)(=O)[O-].[Na+] [sodium lauryl sulfate]
Tyramine receptor (TyrR) [1]
  Affects Intracellular Ca^2+ (Yes or No): No
Tyramine receptor (TyrR) [2]
  Tyramine Receptor Binding Affinity (High or Low): Low
Tyramine receptor (TyrR) [3]
  Affects Intracellular cAMP (Yes or No): No

## CCC(C)(O)CCCC(C)C (stereo not shown) [tetrahydrolinalool]
Tyramine receptor (TyrR) [1]
  Affects Intracellular Ca^2+ (Yes or No): Yes
Tyramine receptor (TyrR) [2]
  Tyramine Receptor Binding Affinity (High or Low): High
Tyramine receptor (TyrR) [3]
  Affects Intracellular cAMP (Yes or No): Yes

## COc1cc(C=O)ccc1O [vanillin]
Tyramine receptor (TyrR) [3]
  Affects Intracellular cAMP (Yes or No): No

## CC1=CCC2CC1C2(C)C (stereo not drawn) [α-pinene]
Tyramine receptor (TyrR) [1]
  Affects Intracellular Ca^2+ (Yes or No): No
Tyramine receptor (TyrR) [2]
  Tyramine Receptor Binding Affinity (High or Low): Low
Tyramine receptor (TyrR) [3]
  Affects Intracellular cAMP (Yes or No): No
H. nana; [6]
  Cure rate (%): 25.0%
H. nana; [7]
  Cure rate (%): 25.0%
